From article PMC3010267 (Analytical biochemistry, 2010)

Key:
[1] = target: A2A adenosine receptor (A2AR*, with mutations A54L, T88A, K122A, and V239A) (Homo sapiens, UniProt P29274, A54L/K122A/T88A/V239A); assay: Biacore kinetic analysis of antagonists binding to capture-coupled A2AR*
[2] = target: β1 adrenergic receptor (β1AR*, with mutations R68S, Y227A, A282L, F237A, and F338M) (Meleagris gallopavo, UniProt P07700, A282L/F327A/F338M/R68S/Y227A); assay: biochemical; assay type: binding, turkey
[3] = target: β1 adrenergic receptor (β1AR*) (Meleagris gallopavo, UniProt P07700, A282L/F327A/F338M/R68S/Y227A); assay: biochemical; assay type: binding, turkey

Compound | kd [2] | Kd [3] [µM] | other results
CCCn1c(=O)[nH]c2nc(-c3ccc(S(=O)(=O)O)cc3)[nH]c2c1=O [PSB 1115] | – | – | Kd ([1]; A2AR, approximate value given in text for the displacement-regeneration compound): ~1000 nM
Nc1nc2c(cnn2CCc2ccccc2)c2nc(-c3ccco3)nn12 [SCH 58261] | – | – | kd [1]: 6.6(2) × 10^−2 s^−1; ka ([1]; biacore capture-coupled a2ar*): 1.00(3) × 10^6 M^−1s^−1
C=CCc1ccccc1OCC(O)CNC(C)C (centres unmarked) [alprenolol] | 2.49(7) × 10^−2 s^−1 | – | Kd [2]: 19 nM; ka [2]: 1.31(4) × 10^6 M^−1s^−1
CC(C)NCC(O)COc1ccc(CC(N)=O)cc1 (centres unmarked) [atenolol] | – | 49.2 | –
COc1ccc(OC)c(C(O)C(C)NC(C)(C)C)c1 (centres unmarked) [butoxamine] | – | 5.15 | –
CC(C)(C)NCC(O)c1cc(Cl)c(N)c(Cl)c1 (centres unmarked) [clenbuterol] | 1.33(5) × 10^−1 s^−1 | – | Kd [2]: 540 nM; ka [2]: 2.47(9) × 10^5 M^−1s^−1
C[C@@H](CO)NC(=O)[C@@H]1C=C2c3cccc4[nH]cc(c34)C[C@H]2N(C)C1 [ergonovine] | – | 84.1 | –
CC(CCc1ccccc1)NCC(O)c1ccc(O)c(C(N)=O)c1 (centres unmarked) [labetalol] | – | – | Kd [2]: 95 nM
CC[C@@H](CO)NC(=O)[C@@H]1C=C2c3cccc4[nH]cc(c34)C[C@H]2N(C)C1 [methylergonovine] | – | 49.6 | –
OC(CNCC(O)C1CCc2cc(F)ccc2O1)C1CCc2cc(F)ccc2O1 (centres unmarked) [nebivolol] | 1.50(3) × 10^−2 s^−1 | – | –
NCCc1c[nH]c2ccc(O)cc12 [serotonin] | – | 14.2 | –
CC(C)(C)NC[C@H](O)COc1nsnc1N1CCOCC1 [timolol] | 6.94(8) × 10^−3 s^−1 | – | –
